This is an account of results in ChEMBL document CHEMBL1201862, “PubChem BioAssay data set” (2004).

Calls of active or inactive are those of the source.

The target of one test is ORF 73 (Human herpesvirus 8, UniProt O40947). The test is described as follows: inhibitors of C-LANA binding to LBS DNA, dose response, biochemical, fluorescence polarization, cherry-picked samples (AID 504725).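 Note: fluorescence polarization of a labeled DNA duplex reporting LANA DNA binding; potency is for inhibitors that block LANA binding to the DNA.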 Also noted: species or system Human gammaherpesvirus 8. (In general: Fluorescence polarisation rises when a labelled molecule tumbles more slowly, as on binding a larger partner.)

Test [1] has as its target T1, 1-phosphatidylinositol 4,5-bisphosphate phosphodiesterase gamma-1 (Homo sapiens, UniProt P19174).
T1 sequence (P19174 whole entry): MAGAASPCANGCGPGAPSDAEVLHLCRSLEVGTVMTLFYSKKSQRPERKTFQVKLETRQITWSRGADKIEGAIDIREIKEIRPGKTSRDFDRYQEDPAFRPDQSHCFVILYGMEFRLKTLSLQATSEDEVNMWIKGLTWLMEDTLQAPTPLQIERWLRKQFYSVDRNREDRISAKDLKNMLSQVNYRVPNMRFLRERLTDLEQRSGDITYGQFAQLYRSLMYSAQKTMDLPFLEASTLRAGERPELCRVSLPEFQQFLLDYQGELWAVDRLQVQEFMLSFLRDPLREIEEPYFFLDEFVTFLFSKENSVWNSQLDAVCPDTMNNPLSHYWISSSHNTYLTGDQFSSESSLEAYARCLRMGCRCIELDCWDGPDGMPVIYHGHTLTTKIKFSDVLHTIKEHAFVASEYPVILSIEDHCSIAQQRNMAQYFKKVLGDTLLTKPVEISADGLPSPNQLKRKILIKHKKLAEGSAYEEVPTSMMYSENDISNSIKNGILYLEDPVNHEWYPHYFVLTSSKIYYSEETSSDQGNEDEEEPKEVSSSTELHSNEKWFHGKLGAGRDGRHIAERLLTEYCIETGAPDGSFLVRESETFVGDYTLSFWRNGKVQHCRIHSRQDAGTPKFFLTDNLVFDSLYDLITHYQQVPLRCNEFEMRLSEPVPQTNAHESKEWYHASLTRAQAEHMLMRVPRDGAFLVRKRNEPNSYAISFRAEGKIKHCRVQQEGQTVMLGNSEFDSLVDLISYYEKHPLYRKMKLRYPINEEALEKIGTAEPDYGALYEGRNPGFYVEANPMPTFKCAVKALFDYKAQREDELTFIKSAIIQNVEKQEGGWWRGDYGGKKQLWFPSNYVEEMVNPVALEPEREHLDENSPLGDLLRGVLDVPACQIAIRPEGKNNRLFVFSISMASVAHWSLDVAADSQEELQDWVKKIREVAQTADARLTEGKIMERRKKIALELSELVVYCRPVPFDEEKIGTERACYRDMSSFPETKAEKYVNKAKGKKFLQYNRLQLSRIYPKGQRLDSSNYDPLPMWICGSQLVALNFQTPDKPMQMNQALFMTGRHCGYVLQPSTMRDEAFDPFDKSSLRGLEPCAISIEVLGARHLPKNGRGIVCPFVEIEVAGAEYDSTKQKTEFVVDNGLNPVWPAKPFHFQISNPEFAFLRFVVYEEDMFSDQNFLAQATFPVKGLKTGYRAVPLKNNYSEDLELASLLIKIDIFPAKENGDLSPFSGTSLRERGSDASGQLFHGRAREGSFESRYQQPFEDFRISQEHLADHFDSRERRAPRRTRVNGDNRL
The test is described as follows: Counterscreen for inhibitors of phospholipase C isozymes (PLC-B3): Fluorescence-based biochemical high throughput dose response assay to identify inhibitors of phospholipase C isozymes (PLC-gamma1). Background: Counterscreens check selectivity or assay interference.

A further test deals with Caspase-9 (Homo sapiens, UniProt P55211). Description: caspase-9 enzyme inhibition, dose response, selectivity assay for caspase-6 inhibitor project, biochemical, fluorescence, plate reader, cherry-picked samples (AID 743293).
For another test, the target named is T2, Caspase-3 (Homo sapiens, UniProt P42574).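 Note: Dose-response selectivity test against caspase-3 for candidate inhibitors of sentrin-specific proteases (SENPs).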
T2 sequence (P42574 whole entry): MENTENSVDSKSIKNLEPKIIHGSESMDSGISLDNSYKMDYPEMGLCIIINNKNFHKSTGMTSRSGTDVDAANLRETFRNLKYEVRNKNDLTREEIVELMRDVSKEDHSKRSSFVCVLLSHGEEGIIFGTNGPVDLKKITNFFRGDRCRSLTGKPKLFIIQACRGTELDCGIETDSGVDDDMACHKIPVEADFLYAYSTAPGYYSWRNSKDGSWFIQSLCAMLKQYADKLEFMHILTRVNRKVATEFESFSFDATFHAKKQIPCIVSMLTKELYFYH
The format is functional.

Test [2] deals with 5-hydroxytryptamine receptor 5A (Homo sapiens, UniProt P47898). Description: Counterscreen for agonists of OPRM1-OPRD1 heterodimerization: luminescence-based cell-based high throughput dose response assay to identify agonists of 5-hydroxytryptamine (serotonin) 5A receptor (HTR5A). [Related pubchem assays (depositor defined):AID504326, AID504355, AID504692, AID504904, AID504905]. Type of test: functional.

The next test has as its target Nonstructural protein 1 (Influenza A virus, UniProt Q194T2). Type of test: functional, Influenza A virus (A/California/07/2009(H1N1)).
The subject of another test is MEF. The test is described as follows: SAR analysis of small molecule cytotoxicity of MazEF TA System activators in embryonic fibroblast (MEF) cells. [Related pubchem assays (depositor defined):AID504720, AID504743]. The format is functional. The note with it: Mus musculus.
A further test concerns the target T3, Galanin receptor type 3 (Homo sapiens, UniProt O60755).
T3 sequence (O60755 whole entry): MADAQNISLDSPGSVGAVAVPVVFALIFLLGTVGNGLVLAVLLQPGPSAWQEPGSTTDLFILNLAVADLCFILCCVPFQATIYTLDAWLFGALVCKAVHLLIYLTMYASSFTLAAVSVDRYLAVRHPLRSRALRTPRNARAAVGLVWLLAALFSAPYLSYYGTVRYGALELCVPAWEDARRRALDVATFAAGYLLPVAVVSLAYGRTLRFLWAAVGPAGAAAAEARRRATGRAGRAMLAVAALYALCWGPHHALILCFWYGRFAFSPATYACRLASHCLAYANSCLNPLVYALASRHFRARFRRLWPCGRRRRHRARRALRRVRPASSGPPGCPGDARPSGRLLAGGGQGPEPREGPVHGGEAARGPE
The test is described as follows: Fluorescence-based cell-based primary high throughput dose response assay to identify antagonists of the Galanin Receptor 3 (GalR3). Type of test: functional.

Test [3] in a line: Luminescence Cell-Based Dose Response HTS to Identify Inhibitors of 5'UTR Stem-Loop Driven Prion Protein mRNA Translation in H4 Neuroglioblastoma Cells. [Related pubchem assays: 1827 (Project Summary), 1813 (Primary HTS)]. The format is functional.
A short description of test [4]: Vero E6 cell cytotoxicity, dose response, cytotoxicity control for non-replicating M. tuberculosis project, secondary assay (AID 492998). Type of test: functional, VeroE6. The note with it: Vero C1008.
The target of test [5] is Lysine-specific demethylase 4A (Homo sapiens, UniProt O75164). The test is described as follows: JMJD2A histone demethylase inhibitors, dose response, selectivity assay for GASC-1 inhibitor project, biochemical, DELFIA europium, cherry-picked samples (AID 488840).
For test [6], the target named is Transitional endoplasmic reticulum ATPase (Homo sapiens, UniProt P55072). Description: p97 ATPase inhibitors, dose response, biochemical (AID 1534).
Another test has as its system Streptococcus. The test is described as follows: Group A Streptococcus viability loss, dose response, counter-screen for streptokinase expression inhibitor project, luminescence, BacTiterGlo (AID 1915).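 Note: potency for reduction of bacterial viability or growth.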 The format is functional, organism-based.

Chain of Caspase-9 (P55211 1-315 limits assumed): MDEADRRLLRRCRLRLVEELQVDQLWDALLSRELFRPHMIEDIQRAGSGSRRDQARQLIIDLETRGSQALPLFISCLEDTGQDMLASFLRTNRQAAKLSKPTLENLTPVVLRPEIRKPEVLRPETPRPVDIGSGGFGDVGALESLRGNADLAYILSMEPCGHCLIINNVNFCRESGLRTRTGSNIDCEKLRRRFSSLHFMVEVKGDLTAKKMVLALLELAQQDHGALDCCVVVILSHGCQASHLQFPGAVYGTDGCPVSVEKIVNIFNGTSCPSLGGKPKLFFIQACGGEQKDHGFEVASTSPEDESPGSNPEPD
Chain of Caspase-9 (P55211 331-416 limits assumed): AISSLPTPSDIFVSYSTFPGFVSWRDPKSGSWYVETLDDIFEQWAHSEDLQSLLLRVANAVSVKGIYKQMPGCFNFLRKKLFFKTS
Chain of Transitional endoplasmic reticulum ATPase (P55072 whole entry): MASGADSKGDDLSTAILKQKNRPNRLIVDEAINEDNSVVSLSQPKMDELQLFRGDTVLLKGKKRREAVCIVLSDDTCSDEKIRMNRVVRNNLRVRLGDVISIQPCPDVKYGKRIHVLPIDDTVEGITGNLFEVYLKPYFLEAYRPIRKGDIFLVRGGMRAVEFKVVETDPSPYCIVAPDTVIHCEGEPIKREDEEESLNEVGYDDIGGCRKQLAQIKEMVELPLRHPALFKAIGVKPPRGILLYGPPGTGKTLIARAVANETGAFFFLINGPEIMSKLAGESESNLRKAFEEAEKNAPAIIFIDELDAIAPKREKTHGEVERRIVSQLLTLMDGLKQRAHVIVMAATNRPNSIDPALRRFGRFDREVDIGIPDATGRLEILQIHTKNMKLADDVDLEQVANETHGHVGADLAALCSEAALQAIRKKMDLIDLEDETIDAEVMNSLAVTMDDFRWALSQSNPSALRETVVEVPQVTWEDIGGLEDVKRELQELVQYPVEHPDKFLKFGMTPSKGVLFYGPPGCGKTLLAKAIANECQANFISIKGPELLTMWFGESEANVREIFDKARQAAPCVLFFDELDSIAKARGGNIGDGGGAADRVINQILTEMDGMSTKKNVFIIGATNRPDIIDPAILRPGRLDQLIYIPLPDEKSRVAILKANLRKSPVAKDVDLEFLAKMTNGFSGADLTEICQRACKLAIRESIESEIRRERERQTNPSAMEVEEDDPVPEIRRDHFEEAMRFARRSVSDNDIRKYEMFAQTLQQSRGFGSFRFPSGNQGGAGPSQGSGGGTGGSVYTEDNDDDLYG
Chain of 5-hydroxytryptamine receptor 5A (P47898 whole entry): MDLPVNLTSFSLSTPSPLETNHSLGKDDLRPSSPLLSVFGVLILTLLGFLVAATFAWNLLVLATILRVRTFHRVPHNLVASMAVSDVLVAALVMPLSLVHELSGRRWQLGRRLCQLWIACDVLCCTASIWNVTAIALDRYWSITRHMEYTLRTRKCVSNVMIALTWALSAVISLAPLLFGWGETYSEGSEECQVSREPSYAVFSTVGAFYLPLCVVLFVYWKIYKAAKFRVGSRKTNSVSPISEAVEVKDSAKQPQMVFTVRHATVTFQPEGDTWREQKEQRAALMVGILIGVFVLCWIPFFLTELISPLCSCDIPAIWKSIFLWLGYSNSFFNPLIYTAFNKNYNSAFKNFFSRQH
Chain of ORF 73 (O40947 whole entry): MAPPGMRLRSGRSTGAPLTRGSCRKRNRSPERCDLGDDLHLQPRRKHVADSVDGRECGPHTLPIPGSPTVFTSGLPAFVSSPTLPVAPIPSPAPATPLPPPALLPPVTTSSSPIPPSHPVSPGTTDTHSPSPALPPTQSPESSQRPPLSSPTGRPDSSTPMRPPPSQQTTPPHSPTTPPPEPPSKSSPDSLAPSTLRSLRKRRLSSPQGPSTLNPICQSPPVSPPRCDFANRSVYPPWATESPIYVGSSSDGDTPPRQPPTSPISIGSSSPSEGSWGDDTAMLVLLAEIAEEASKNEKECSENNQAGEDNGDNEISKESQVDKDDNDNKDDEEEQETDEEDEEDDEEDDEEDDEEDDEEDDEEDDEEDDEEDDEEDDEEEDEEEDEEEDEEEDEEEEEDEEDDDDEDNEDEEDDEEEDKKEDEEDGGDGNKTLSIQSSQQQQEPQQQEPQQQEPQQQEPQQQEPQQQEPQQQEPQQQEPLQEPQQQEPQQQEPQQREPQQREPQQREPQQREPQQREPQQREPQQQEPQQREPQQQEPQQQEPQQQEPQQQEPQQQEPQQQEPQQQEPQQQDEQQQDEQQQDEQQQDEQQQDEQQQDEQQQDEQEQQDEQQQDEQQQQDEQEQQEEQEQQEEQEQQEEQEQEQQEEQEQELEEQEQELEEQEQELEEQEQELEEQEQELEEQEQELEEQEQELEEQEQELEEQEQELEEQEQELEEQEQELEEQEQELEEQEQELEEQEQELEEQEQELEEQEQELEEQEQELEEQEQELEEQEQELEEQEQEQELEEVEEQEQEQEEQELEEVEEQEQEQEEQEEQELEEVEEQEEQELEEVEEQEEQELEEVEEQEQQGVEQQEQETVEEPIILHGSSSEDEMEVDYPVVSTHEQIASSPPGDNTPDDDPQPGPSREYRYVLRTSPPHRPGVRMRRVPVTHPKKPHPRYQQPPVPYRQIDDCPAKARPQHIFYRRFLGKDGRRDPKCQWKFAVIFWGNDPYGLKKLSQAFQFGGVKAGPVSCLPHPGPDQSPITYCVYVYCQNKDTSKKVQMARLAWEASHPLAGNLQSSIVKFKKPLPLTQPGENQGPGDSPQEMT
Chain of Lysine-specific demethylase 4A (O75164 whole entry): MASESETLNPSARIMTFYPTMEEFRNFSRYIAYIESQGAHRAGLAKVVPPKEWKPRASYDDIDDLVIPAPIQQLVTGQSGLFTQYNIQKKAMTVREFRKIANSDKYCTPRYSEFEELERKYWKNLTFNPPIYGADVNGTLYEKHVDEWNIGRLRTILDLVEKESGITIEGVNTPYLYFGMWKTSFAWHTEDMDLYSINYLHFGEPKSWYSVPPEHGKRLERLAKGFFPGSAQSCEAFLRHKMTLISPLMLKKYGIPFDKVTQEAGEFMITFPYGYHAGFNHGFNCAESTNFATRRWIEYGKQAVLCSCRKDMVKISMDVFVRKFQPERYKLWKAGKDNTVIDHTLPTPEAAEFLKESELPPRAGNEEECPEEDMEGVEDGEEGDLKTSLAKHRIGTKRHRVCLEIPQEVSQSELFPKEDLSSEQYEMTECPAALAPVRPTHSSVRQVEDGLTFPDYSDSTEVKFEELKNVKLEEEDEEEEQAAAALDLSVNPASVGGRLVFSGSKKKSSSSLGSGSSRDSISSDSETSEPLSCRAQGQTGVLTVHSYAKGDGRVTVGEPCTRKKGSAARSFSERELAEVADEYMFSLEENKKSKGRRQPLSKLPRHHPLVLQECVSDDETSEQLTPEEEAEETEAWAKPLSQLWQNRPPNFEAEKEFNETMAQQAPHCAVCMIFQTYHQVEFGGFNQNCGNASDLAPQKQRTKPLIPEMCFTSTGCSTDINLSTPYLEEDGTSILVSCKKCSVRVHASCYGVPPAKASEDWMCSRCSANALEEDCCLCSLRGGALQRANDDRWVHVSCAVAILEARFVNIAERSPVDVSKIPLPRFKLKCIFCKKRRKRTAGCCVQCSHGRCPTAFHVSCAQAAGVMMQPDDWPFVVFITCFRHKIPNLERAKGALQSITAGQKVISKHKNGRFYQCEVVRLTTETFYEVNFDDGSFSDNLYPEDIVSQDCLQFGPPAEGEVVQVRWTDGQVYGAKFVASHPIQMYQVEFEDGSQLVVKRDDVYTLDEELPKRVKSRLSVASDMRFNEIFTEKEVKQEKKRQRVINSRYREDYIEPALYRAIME
Chain of Nonstructural protein 1 (Q194T2 whole entry): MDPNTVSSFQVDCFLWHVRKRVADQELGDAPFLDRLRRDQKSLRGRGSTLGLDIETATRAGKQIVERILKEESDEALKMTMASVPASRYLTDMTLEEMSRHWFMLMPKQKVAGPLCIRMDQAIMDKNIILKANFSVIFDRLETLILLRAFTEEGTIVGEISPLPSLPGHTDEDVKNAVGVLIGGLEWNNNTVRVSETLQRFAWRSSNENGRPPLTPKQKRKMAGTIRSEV

What is called AC50 is the midpoint of the concentration-response curve, whichever way the signal moves. The term IC50 denotes the point on the concentration scale where inhibition reaches its midpoint. For `O=C(CCN1C(=O)/C(=C\c2ccco2)SC1=S)Nc1ccc(C(=O)O)c(O)c1`, the half-maximal activity concentration (AC50) on ORF 73 is 94.6 µM (active). For the same compound, the IC50 in [1] was > 122 µM (inactive).
For the compound `Oc1nc(Nc2ccccc2Cl)cc2ccccc12`, the AC50 on Caspase-9 is 28.8 µM (active). Also, on Caspase-3, the 50% inhibitory concentration (IC50) is 4.42 µM (active).
As usually defined, the EC50 is the concentration that produces a half-maximal response. Usually CC50 stands for the concentration at which the toxic effect on the cells reaches its halfway point. In the case of `O=C1C=C(c2c(O)ccc3ccccc23)c2ccccc2C1=O`, in test [2], the EC50 is > 92.4 µM (inactive). Moreover, the concentration for half-maximal inhibition (IC50) at Nonstructural protein 1 was 46.5 µM (active); on Galanin receptor type 3 it was > 3.32 µM (active). Further, the 50% cytotoxic concentration (CC50) in the test with MEF is 3.84 µM (active).
On to `Cc1nc2c(=O)n(C)c(=O)nc-2n(C)n1`, for which the figures for the EC50 (in test [3]; with Streptococcus) were 0.251 µM (inconclusive) and 9.31 µM (active), respectively. Further, the cytotoxic concentration (CC50) in test [4] is 4.51 µM (active). Besides, the AC50 in test [5] was 1.78 µM (active). Further, the IC50 in [6] is > 50 µM (not active).
